# Test results taken from patent publication US6022869A, “Aminoheterocyclic compounds with antithrombotic/anticoagulant effect” (Zeneca Limited, priority 1996, dated 2000).
# B1: antistasin: protein, specific Factor Xa inhibitor which possesses antithrombotic properties (protein, UniProt P15358 18-136, looked up)
# Antistasin: QGPFGPGCEEAGCPEGSACNIITDRCTCSGVRCRMHCPHGFQRSRYGCEFCKCRLEPMKATCDISECPEGMMCSRLTNKCDCKIDINCRKTCPNGLKRDKLGCEYCECRPKRKLIPRLS
# Columns and labels:
# Factor Xa = conditions: known from the literature; cited from earlier work
# [1] = tested on: various animal models of thrombotic disease; conditions: cited from earlier work
# human Factor Xa = human Factor Xa (Homo sapiens, UniProt P00742); assay: Measurement of Factor Xa Inhibition (test a, chromogenic substrate S-2765); format: biochemical; conditions: pH 7.5, 37° C., human Factor Xa 0.001 Units/ml
# Experimental: a) Measurement of Factor Xa Inhibition
# An in vitro assay system was carried out based on the method of Kettner et al., J. Biol. Chem., 1990, 265, 18289-18297, whereby various concentrations of a test compound were dissolved in a pH7.5 buffer containing 0.5% of a polyethylene glycol (PEG 6000) and incubated at 37° C. with human Factor Xa (0.001 Units/ml, 0.3 ml) for 15 minutes. The chromogenic substrate S-2765 (KabiVitum AB, 20 μM) was added and the mixture was incubated at 37° C. for 20 minutes whilst the absorbance at 405 nm was measured. The maximum reaction velocity (Vmax) was determined and compared with that of a control sample containing no test compound. Inhibitor potency was expressed as an IC50 value.
# human thrombin = biological target: T1, human thrombin (Homo sapiens, UniProt P00734); assay: Measurement of Thrombin Inhibition (test b, chromogenic substrate S-2238); format: biochemical; conditions: human thrombin 0.005 Units/ml, S-2238 7 μM
# T1 construct: cleaves prothrombin to generate thrombin
# Experimental: b) Measurement of Thrombin Inhibition
# The procedure of method a) was repeated except that human thrombin (0.005 Units/ml) and the chromogenic substrate S-2238 (KabiVitum AB, 7 μM) were employed.
# [2] = tested on: human, rat or rabbit blood plasma (prothrombin time); assay: Measurement of Anticoagulant Activity, prothrombin time (PT) test in vitro (test c); conditions: plasma incubated 10 minutes at 37° C., species not given
# Experimental: c) Measurement of Anticoagulant Activity
# An in vitro assay whereby human, rat or rabbit venous blood was collected and added directly to a sodium citrate solution (3.2 g/100 ml, 9 parts blood to 1 part citrate solution). Blood plasma was prepared by centrifugation (1000 g, 15 minutes) and stored at 2-4° C. Conventional prothrombin time (PT) tests were carried out in the presence of various concentrations of a test compound and the concentration of test compound required to double the clotting time, hereinafter referred to as CT2, was determined. In the PT test, the test compound and blood plasma were incubated at 37° C. for 10 minutes. Tissue thromboplastin with calcium (Sigma Limited, Poole, England) was added. Fibrin formation and the time required for a clot to form were determined.
# Sequence of human Factor Xa (P00742 235-488 limits assumed): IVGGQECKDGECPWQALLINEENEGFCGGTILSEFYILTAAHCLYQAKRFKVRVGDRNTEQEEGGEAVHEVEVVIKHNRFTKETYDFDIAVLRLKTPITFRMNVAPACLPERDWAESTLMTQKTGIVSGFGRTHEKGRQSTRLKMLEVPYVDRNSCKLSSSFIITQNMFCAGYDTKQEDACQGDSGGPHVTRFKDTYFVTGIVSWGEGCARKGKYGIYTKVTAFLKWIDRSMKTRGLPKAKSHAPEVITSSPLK
# Sequence of human Factor Xa (P00742 41-179 partner limits assumed): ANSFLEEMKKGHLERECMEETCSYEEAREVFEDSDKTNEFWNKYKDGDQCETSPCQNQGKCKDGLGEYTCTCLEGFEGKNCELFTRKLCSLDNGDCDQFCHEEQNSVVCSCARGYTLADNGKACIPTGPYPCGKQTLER
Molecule,"Factor Xa inhibition (specificity, in words) (Factor Xa)",antithrombotic properties (in words) [1],IC50 (human Factor Xa) [nM],IC50 (human thrombin) [µM],"CT2 (PT), concentration of test compound required to double the clotting time [2] [µM]"
"tick anticoagulant protein (TAP): protein, specific Factor Xa inhibitor which possesses antithrombotic properties (YNRLCIKPRDWIDECDSNEGGERAYFRNGKGGCDSFWICPEDHTGADYYSSYRDCFNACI; UniProt P17726 1-60, looked up)",specific Factor Xa inhibitors,possess antithrombotic properties,,,
"CCSCCNC(=O)C1CN(S(=O)(=O)c2ccc3cc(Br)ccc3c2)CCN1C(=O)C1CCN(c2ccncc2)CC1 (stereo not shown) [Example 1, 4-(6-Bromonaphth-2-ylsulphonyl)-2-[N-(2-(ethylthio)ethyl)carbamoyl]-[1-1-(4-pyridyl)piperidin-4-ylcarbonyl]piperazine]",,,4,> 5,1
B1,specific Factor Xa inhibitors,possess antithrombotic properties,,,
